Laboratory results taken from article PMC6792352, “Limited Chemical Structural Diversity Found to Modulate Thyroid Hormone Receptor in the Tox21 Chemical Library” (Environmental Health Perspectives, 2019).
Where two headings read alike, the source gives them in different places.

How the values were obtained:
[1] = tested on: thyroid hormone receptor (TR); assay: Classification of TR actives across characterization assays (TR-Ag / RXR-Ag; TR model binary); design: key to Categorization Code: FP, false positive; settings: for TR_Model_Binary_Agonist / TR_Model_Binary_Antagonist: candidate chemicals in Tables 2 and 3 define actives; for Categorization Code: TR agonist characterization
Method in brief: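 Pharmaceuticals excluded; actives called from GH3-TRE qHTS (agonist, antagonist, viability) on 8,305 chemicals. Confirmation of 84 selected chemicals used GH3-TRE-Ag, mammalian one-hybrid TRβ and RXRα UAS-bla HEK 293T specificity screens, parental HEK293T viability, and two TR:coactivator recruitment assays.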

estrogen receptor = tested on: estrogen receptor; design: method as in Judson et al. 2015; settings: model values ≥0.1 define actives; ref Judson et al. 2015; cited from earlier work
in vitro [2] = settings: rat, gh3-tre-luc cells, AC50 (uM) modified / 1000
[3] = target: T1, human TRβ ligand-binding domain (Homo sapiens, UniProt P10828); assay: TRb-bla antagonist mammalian one-hybrid beta-lactamase assay (TOX21_TRB_BLA_Antagonist_Followup, aeid 2238-2240); type: cell-based; settings: for Emax: read-out: resp_max (maximum response value)
T1 sequence (P10828 217-461 limits assumed): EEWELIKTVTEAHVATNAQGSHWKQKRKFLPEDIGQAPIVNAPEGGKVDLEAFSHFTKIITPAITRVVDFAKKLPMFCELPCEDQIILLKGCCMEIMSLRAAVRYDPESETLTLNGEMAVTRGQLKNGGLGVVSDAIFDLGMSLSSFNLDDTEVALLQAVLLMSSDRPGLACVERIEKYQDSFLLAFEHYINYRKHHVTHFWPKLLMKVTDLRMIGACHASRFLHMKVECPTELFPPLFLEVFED

[4] = tested on: thyroid hormone receptor (endogenous TRα and TRβ); assay: GH3-TRE-Antag-Followup confirmation (TOX21_TR_LUC_GH3_Antagonist_Followup, aeid 2227); type: cell-based, rat; settings: Table S3, aeid 2227
[5] = target: T2, TRα ligand-binding domain (Homo sapiens, UniProt P10827); assay: TRa-coa LanthaScreen TR-FRET coactivator (SRC-2 peptide) recruitment, agonist (TOX21_TRA_COA_Agonist_Followup_ratio, aeid 2230); type: biochemical; settings: for TRa-coa hitc: hit call from tcpl; for Emax: read-out: EMax (% of Control) tra-coa-agonist-followup-1
T2 construct: the receptor LBDs expressed as glutathione S-transferase (GST) fusion proteins; purchased
T2 sequence (P10827 163-410 isoform P10827-2 limits assumed, other chains not shown): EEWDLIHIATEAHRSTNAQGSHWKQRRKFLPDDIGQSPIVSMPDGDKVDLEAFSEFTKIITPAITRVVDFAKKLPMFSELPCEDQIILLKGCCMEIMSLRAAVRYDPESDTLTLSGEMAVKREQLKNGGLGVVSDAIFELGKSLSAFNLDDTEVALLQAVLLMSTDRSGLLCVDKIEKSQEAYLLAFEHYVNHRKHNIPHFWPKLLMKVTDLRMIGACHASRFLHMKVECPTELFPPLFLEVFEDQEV

[6] = tested on: thyroid hormone receptor (endogenous TRα and TRβ); assay: GH3-TRE-Ag-Followup confirmation (TOX21_TR_LUC_GH3_Agonist_Followup, aeid 2226); type: cell-based, rat; settings: for AC50: read-out: GH3-TRE-Ag-Followup AC50; for GH3-TRE-Ag-Followup hitc: hit call from tcpl
[7] = target: T1, human TRβ ligand-binding domain; assay: TRb-coa LanthaScreen TR-FRET coactivator (SRC-2 peptide) recruitment, agonist (TOX21_TRB_COA_Agonist_Followup_ratio, aeid 2244); type: biochemical; design: host or cells: GeneBLAzer UAS-bla HEK 293T; settings: for TRb-coa hitc: hit call from tcpl; for Emax: read-out: EMax (% of Control) trb-coa-agonist-followup-1
[8] = tested on: thyroid hormone receptor (endogenous TRα and TRβ); assay: GH3-TRE-Ag primary qHTS, luciferase reporter, agonist mode (TOX21_TR_LUC_GH3_Agonist, aeid 803); type: cell-based, rat; settings: for GH3-TRE-Ag AC50 hitc: hit call from tcpl; for AC50: read-out: GH3-TRE-Ag AC50
GH3-TRE-Luc cell line [9] = tested on: GH3-TRE-Luc cell line
human RXRα = target: T3, human RXRα (Homo sapiens, UniProt P19793); assay: RXRa-bla-Ag mammalian one-hybrid beta-lactamase assay (TOX21_TR_RXR_BLA_Agonist_Followup_ratio, aeid 2253); type: cell-based; settings: for tr-followup-rxr-bla-agonist-1 hitc: hit call from tcpl; for Emax: read-out: EMax (% of Control) tr-followup-rxr-bla-agonist-1
T3 construct: host or cells: GeneBLAzer UAS-bla HEK 293T
T3 sequence (P19793 227-458 limits assumed): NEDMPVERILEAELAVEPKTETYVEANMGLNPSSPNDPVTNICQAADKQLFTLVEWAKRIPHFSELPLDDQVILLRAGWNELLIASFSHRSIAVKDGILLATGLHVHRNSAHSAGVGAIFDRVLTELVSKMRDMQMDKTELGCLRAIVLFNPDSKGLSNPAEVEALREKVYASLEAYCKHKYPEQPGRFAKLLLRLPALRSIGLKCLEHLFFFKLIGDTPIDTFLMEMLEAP

[10] = target: T1, human TRβ ligand-binding domain; assay: TRb-bla agonist mammalian one-hybrid beta-lactamase assay (TOX21_TRB_BLA_Agonist_Followup_ratio, aeid 2236); type: cell-based; design: host or cells: GeneBLAzer UAS-bla HEK 293T; settings: for TRb-bla hitc: hit call from tcpl
[11] = tested on: Tox21 cell viability assays (different cell types); assay: Global cytotoxicity: eighteen Tox21 cell viability assays; type: cell-based
[12] = as above; type: cell-based
[13] = target: human retinoid X receptor alpha (RXRα) ligand-binding domain of the GeneBLAzer RXRα-UAS-bla HEK 293T one-hybrid assay (human)
[14] = tested on: thyroid hormone receptor (endogenous TRα and TRβ); assay: cells; design: species or system GH3-TRE-Luc (rat pituitary); GH3-TRE-Luc luciferase reporter transactivation, agonist mode, qHTS; RXR ligands can also activate indirectly; settings: 24 h, read-out: TR_LUC_GH3_Agonist_AC50 (uM)
[15] = tested on: thyroid hormone receptor (endogenous TRα and TRβ); assay: cells; design: species or system GH3-TRE-Luc (rat pituitary); GH3-TRE-Luc luciferase reporter, antagonist mode against 1 nM T3, loss of signal, qHTS; settings: 24 h; antagonist mode, 1 nM T3; no GH3 cytotoxicity hit; read-out: Average AC50 (uM) GH3-TRE-Antag
in vitro [16] = assay: in vitro; design: species or system GH3-TRE-Luc (rat pituitary); CellTiter-Fluor viability run in parallel with antagonist mode (1 nM T3), loss of viability; settings: rat, gh3-tre-luc cells, AC50 (uM) modified / 1000, Tox21_110001=Tox21_113033, viability, 1 nM T3 present
luciferase = luciferase (Photinus pyralis, UniProt P08659); assay: Luciferase inhibition
Chain of luciferase (P08659 whole entry, species assumed): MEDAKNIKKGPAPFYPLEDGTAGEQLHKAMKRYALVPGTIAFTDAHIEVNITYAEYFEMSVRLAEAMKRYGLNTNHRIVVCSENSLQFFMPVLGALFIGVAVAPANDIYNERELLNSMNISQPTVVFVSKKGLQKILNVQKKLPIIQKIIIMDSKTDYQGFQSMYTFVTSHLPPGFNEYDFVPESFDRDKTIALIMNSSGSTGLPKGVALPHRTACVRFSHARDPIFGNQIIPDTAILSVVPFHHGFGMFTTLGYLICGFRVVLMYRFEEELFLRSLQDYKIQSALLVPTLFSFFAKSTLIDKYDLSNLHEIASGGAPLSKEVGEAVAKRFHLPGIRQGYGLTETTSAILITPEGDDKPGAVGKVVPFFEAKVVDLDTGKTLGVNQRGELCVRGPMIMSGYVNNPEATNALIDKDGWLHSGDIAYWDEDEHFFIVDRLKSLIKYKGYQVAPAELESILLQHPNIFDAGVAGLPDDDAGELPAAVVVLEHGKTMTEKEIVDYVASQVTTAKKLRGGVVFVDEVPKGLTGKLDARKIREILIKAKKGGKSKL

GH3-TRE-Luc cell line [17] = assay: GH3-TRE-Via cell viability, CellTiter-Fluor (TOX21_TR_LUC_GH3_Antagonist_viability, aeid 805)
GH3-TRE-Luc cell line [18] = settings: read-out: AC50 (uM) modified / 1000; Tox21_110001=Tox21_303049; viability, 1 nM T3 present, 24 h

In the case of (-)-alpha-Pinene, the TR_Model_Binary_Agonist [1] is given as 0, the TR_Model_Binary_Antagonist [1] is given as 0 and the ER_Model_AUC_Agonist (estrogen receptor) is given as 0. The ER_Model_AUC_Antagonist (estrogen receptor) was 0.

In the case of `C=C1CCC2CC1C2(C)C` (single isomer, unassigned; (-)) [(-)-beta-Pinene], the TR_Model_Binary_Agonist [1] is given as 0, the TR_Model_Binary_Antagonist [1] is given as 0 and the ER_Model_AUC_Agonist (estrogen receptor) is given as 0. For the same compound, the ER_Model_AUC_Antagonist (estrogen receptor) was 0.

`O=C(O)c1cccnc1Nc1cccc(C(F)(F)F)c1` [Niflumic acid] gave a CC50 at 24 h (in vitro [2]) greater than 50 µM, a hitc ([3]; Table S3, aeid 2238, ch1) of 0 and an Emax ([3]; Table S3, aeid 2238, ch1) of 36.4%. It also gave a hitc ([3]; Table S3, aeid 2239, ch2) of 0, an Emax ([3]; Table S3, aeid 2239, ch2) of 24.1% and a hitc ([3]; Table S3, aeid 2240, ratio) of 0. For the same compound, the Emax ([3]; Table S3, aeid 2240, ratio) was 46.2%, the “flag (text output for the level 6 method)” value [4] was “Borderline inactive” and the hitc [4] was 0. The “modl_tp (top asymptote for the winning model)” value [4] was 11.5978 percent_activity and the “resp_max (maximum response value)” value [4] was 41.1677 percent_activity.

For `CSCC[C@H](NC(=O)[C@H](Cc1ccc(OS(=O)(=O)O)cc1)NC(=O)[C@@H](N)CC(=O)O)C(=O)NCC(=O)N[C@@H](Cc1c[nH]c2ccccc12)C(=O)N[C@@H](CCSC)C(=O)N[C@@H](CC(=O)O)C(=O)N[C@@H](Cc1ccccc1)C(N)=O` [Sincalide, reference compound], the AC50 ([5]; cell-free coactivator recruitment, read-out: TRa-coa-Ag AC50) was greater than 92 µM, the TRa-coa hitc ([5]; agonist) was 0 and the Emax [5] was -0.4%. The “EMax (% of Control) gh3-tre-agonist-followup-1_agonist” value [6] was 19.9 % of Control, the AC50 ([6]; confirmation, agonist mode) was 8.59 µM and the GH3-TRE-Ag-Followup hitc [6] was 0. It also gave an AC50 greater than 92 µM, an AC50 ([7]; cell-free coactivator recruitment, read-out: TRb-coa-Ag AC50) greater than 92 µM and a TRb-coa hitc ([7]; agonist) of 0. For the same compound, the Emax [7] was -0.125%, the “EMax (% of Control) gh3-tre-agonist” value [8] was 80.1 % of Control and the “GH3-TRE-Ag AC50 hitc” value [8] was 1. For the same compound, the AC50 ([8]; primary qHTS, agonist mode, 24 h, top concentration 92 μM) was 12.4 µM, the TR_LUC_GH3_Antagonist_viability hitc (GH3-TRE-Luc cell line [9]) was 0 and the AC50 (human RXRα; HEK 293T one-hybrid, agonist mode, inactive set to 1,000, read-out: RXRa-bla-Ag AC50) was 10.5 µM. The tr-followup-rxr-bla-agonist-1 hitc (human RXRα) was 1, the Emax (human RXRα) was 36.1% and the “Categorization Code” value [1] was “RXR-Ag”. For the same compound, the Classification ([1]; TR-Ag = TR agonist, RXR-Ag = RXR agonist) was “RXR-Ag”, the AC50 ([10]; HEK 293T one-hybrid, agonist mode, read-out: TRb-bla-Ag AC50) was greater than 92 µM and the TRb-bla hitc ([10]; agonist) was 0. For the same compound, the “GLOBAL CYTOTOXICITY cytotox.median” value [11] was greater than 92, the “GLOBAL CYTOTOXICITY cytotox.number_Active” value [11] was 0 and the AC50 [12] was greater than 92 µM.

Work on Sincalide (peptide) yielded an RXRa-bla-Ag AC50 (β-lactamase reporter gene, RXRα-UAS-bla HEK 293T mammalian one-hybrid assay, agonist mode) [13] of 10.5 µM.

In the case of `C[C@]12CC[C@@H]3c4ccc(OC(=O)N(CCCl)CCCl)cc4CC[C@H]3[C@@H]1CC[C@@H]2OP(=O)(O)O` [Estramustine phosphate], the AC50 [14] is reported as greater than 50 µM, the AC50 [15] is reported as 42.9 µM and the CC50 at 24 h (in vitro [16]) is reported as greater than 50 µM.

Compound `CN(C)c1ccc(N=O)cc1` [N,N-dimethyl-4-nitrosoaniline] has a CC50 at 24 h (in vitro [2]) of 5.44 µM, an AC50 ([5]; agonist, read-out: TRa-coa AC50) greater than 92 µM and a TRa-coa hitc ([5]; agonist) of 0. For the same compound, the Emax [5] was -0.217%, the “EMax (% of Control) gh3-tre-agonist-followup-1_agonist” value [6] was 47.7 % of Control and the GH3-TRE-Ag-Followup hitc [6] was 1. For the same compound, the AC50 [6] was 9.01 µM, the “luciferase inhibition” value (luciferase) was “luciferase inhibitor” and the AC50 ([7]; agonist, read-out: TRb-coa AC50) was greater than 92 µM. The TRb-coa hitc ([7]; agonist) was 0, the Emax [7] was -0.165% and the “EMax (% of Control) gh3-tre-agonist” value [8] was 31.0 % of Control. For the same compound, the “GH3-TRE-Ag AC50 hitc” value [8] was 1, the AC50 [8] was 12.3 µM and the AC50 (human RXRα) was greater than 92 µM. The tr-followup-rxr-bla-agonist-1 hitc (human RXRα) was 0, the Emax (human RXRα) was 1.8% and the “Categorization Code” value [1] was “FP”. The AC50 ([10]; agonist, read-out: TRb-bla AC50) was greater than 92 µM, the TRb-bla hitc ([10]; agonist) was 0 and the Emax ([10]; read-out: EMax (% of Control) trb-bla-agonist-followup-1) was 8.4%. The AC50 (GH3-TRE-Luc cell line [17]; Rattus norvegicus, read-out: TR_LUC_GH3_Antagonist_viability AC50 (uM)) was 6.9 µM, the TR_LUC_GH3_Antagonist_viability hitc (GH3-TRE-Luc cell line [17]; hit call from tcpl) was 1 and the CC50 (GH3-TRE-Luc cell line [18]) was 8.37 µM.
